Earlier results in patent publication US20060275513A1, “Diet supplement for burning additional calories, providing sustained energy, supporting weight loss, and/or improving mental focus” (priority 2005, published 2006).

Conditions: non-extended release format

Cn1c(=O)c2c(ncn2C)n(C)c1=O [Caffeine]
accepted half-life: 3.5 to 5 h
